According to patent US9856279B2 (AGIOS PHARMACEUTICALS, INC, priority 2011, dated 2018):
pIC50: −log10 of the molar value.

The molecules below were run against IDH1 R132H (Homo sapiens, UniProt O75874, R132H) (assay: Assay for IDH1 R132H inhibitors (NADPH/aKG, resazurin detection)). Conditions: Table 3; enzyme assay, 50 minutes at room temperature; read-out: IC50 (IDH1 R132H Inhibition).
Assay type: biochemical
How it was run: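 Compound added to substrate mix (8 uM NADPH, 2 mM aKG), then enzyme mix (0.2 μg/ml IDH1 R132H); 50 min RT in 20 mM Tris pH 7.5, 150 mM NaCl, 10 mM MgCl2, 0.03% BSA. Resazurin detection mix (30 μM) 5 min RT; resorufin fluorescence Ex544/Em590.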

Chain of IDH1 R132H (O75874 whole entry R132H): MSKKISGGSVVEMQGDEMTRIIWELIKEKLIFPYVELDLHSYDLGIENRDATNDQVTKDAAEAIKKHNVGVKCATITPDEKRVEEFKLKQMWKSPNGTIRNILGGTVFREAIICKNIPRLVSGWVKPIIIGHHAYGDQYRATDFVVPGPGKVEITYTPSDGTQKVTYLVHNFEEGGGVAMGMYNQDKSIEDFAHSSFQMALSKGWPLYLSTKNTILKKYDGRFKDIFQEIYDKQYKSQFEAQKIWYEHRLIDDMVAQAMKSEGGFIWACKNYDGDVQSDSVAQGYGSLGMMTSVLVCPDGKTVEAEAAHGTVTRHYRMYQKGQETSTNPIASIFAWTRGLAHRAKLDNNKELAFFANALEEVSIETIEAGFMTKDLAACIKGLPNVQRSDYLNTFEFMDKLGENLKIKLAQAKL

Row | pIC50 | SMILES
1 | ≥ 6.00 | COCCC(=O)N1CCN(c2nc(C3CC3)c(-c3ccncc3)c(C)c2C#N)C[C@H]1C [Compound 260, (R)-2-cyclopropyl-6-(4-(3-methoxypropanoyl)-3-methylpiperazin-1-yl)-4-methyl-3,4′-bipyridine-5-carbonitrile]
2 | 5.30 to 6.00 | CC(C)c1nc(N2CCN(C(=O)c3ccoc3)[C@H](C(C)C)C2)c(C#N)cc1-c1ccc(C(F)(F)F)cc1 [Compound 195]
3 | 4.82 to 5.30 | CC(C)c1nc(N2CCN(C(=O)c3ccoc3)C(c3ccccc3)C2)c(C#N)cc1-c1ccccc1 (stereo not shown) [Compound 153, 2-(4-(furan-3-carbonyl)-3-phenylpiperazin-1-yl)-6-isopropyl-5-phenylnicotinonitrile]
4 | ≥ 6.00 | COCCC(=O)N1CCN(c2nc(C(C)C)c(-c3ccccc3)cc2C#N)C[C@H]1C [Compound 222, (R)-6-isopropyl-2-(4-(3-methoxypropanoyl)-3-methylpiperazin-1-yl)-5-phenylnicotinonitrile]
5 | 5.30 to 6.00 | COCCC(=O)N1CCN(c2nc(C(C)C)c(-c3ccc4c(c3)OCCO4)cc2C#N)C[C@H]1C [Compound 233, (R)-5-(2,3-dihydrobenzo[b][1,4]dioxin-6-yl)-6-isopropyl-2-(4-(3-methoxypropanoyl)-3-methylpiperazin-1-yl)nicotinonitrile]
6 | 4.82 to 5.30 | CC(C)c1nc(N2CCN(C(=O)c3ccoc3)CC2c2ccccc2)c(C#N)cc1-c1ccccc1 (stereo not shown) [Compound 159, 2-(4-(furan-3-carbonyl)-2-phenylpiperazin-1-yl)-6-isopropyl-5-phenylnicotinonitrile]
7 | 5.30 to 6.00 | CC[C@@H]1CN(c2nc(C(C)C)c(-c3ccccc3)cc2C#N)CCN1C(=O)c1ccoc1C [Compound 173, (R)-2-(3-ethyl-4-(2-methylfuran-3-carbonyl)piperazin-1-yl)-6-isopropyl-5-phenylnicotinonitrile]
8 | 5.30 to 6.00 | COCCC(=O)N1CCN(c2nc(C(C)C)c(-c3cccc(C)c3)cc2C#N)C[C@H]1C [Compound 193, (R)-6-isopropyl-2-(4-(3-methoxypropanoyl)-3-methylpiperazin-1-yl)-5-m-tolylnicotinonitrile]
9 | 5.30 to 6.00 | Cc1ccc(-c2cc(C#N)c(N3CCN(C(=O)Cc4cccs4)[C@H](C)C3)nc2C(C)C)cc1 [Compound 181, (R)-6-isopropyl-2-(3-methyl-4-(2-(thiophen-2-yl)acetyl)piperazin-1-yl)-5-p-tolylnicotinonitrile]
10 | 5.30 to 6.00 | COCCC(=O)N1CCN(c2nc(C(C)C)c(-c3ccc(C(C)C)cc3)cc2C#N)C[C@H]1C [Compound 208, (R)-6-isopropyl-5-(4-isopropylphenyl)-2-(4-(3-methoxypropanoyl)-3-methylpiperazin-1-yl)nicotinonitrile]
11 | 5.30 to 6.00 | COCCC(=O)N1CCN(c2nc(C(C)C)c(OCc3ccccc3)cc2C#N)C[C@H]1C [Compound 254, (R)-5-(benzyloxy)-6-isopropyl-2-(4-(3-methoxypropanoyl)-3-methylpiperazin-1-yl)nicotinonitrile]
12 | ≥ 6.00 | COCCC(=O)N1CCN(c2nc(C3CC3)c(-c3cccc(C)c3)c(C)c2C#N)C[C@H]1C [Compound 243, (R)-6-cyclopropyl-2-(4-(3-methoxypropanoyl)-3-methylpiperazin-1-yl)-4-methyl-5-m-tolylnicotinonitrile]
13 | 5.30 to 6.00 | CC(C)c1cc(-c2ccccc2)c(C#N)c(N2C[C@@H](C)N(C(=O)c3ccccc3)[C@@H](C)C2)n1 [Compound 101, 2-((3S,5R)-4-benzoyl-3,5-dimethylpiperazin-1-yl)-6-isopropyl-4-phenylnicotinonitrile]
14 | 5.30 to 6.00 | Cc1cccc(-c2cc(C#N)c(N3CCN(C(=O)Cc4cccs4)[C@H](C)C3)nc2C(C)C)c1 [Compound 192, (R)-6-isopropyl-2-(3-methyl-4-(2-(thiophen-2-yl)acetyl)piperazin-1-yl)-5-m-tolylnicotinonitrile]
15 | 4.82 to 5.30 | CC(C)c1cc(-c2cccc(F)c2)c(C#N)c(N2CCN(C(=O)c3c[nH]c4ccccc34)CC2)n1 [Compound 116, 2-(4-(1H-indole-3-carbonyl)piperazin-1-yl)-4-(3-fluorophenyl)-6-isopropylnicotinonitrile]
16 | ≥ 6.00 | COCCC(=O)N1CCN(c2nc(C(C)C)c(-c3ccc(F)cc3)cc2C#N)C[C@H]1C [Compound 207, (R)-5-(4-fluorophenyl)-6-isopropyl-2-(4-(3-methoxypropanoyl)-3-methylpiperazin-1-yl)nicotinonitrile]

Same assay, conditions: enzyme assay of Example 12; read-out: IDH1R132H IC50

Row | pIC50 | SMILES
17 | 6.00 to 6.30 | COCCC(=O)N1CCN(c2nc(C3CC3)c(-c3ccc(-c4ccccc4)c(F)c3)c(C)c2C#N)C[C@H]1C [Compound 282, (R)-6-cyclopropyl-5-(2-fluorobiphenyl-4-yl)-2-(4-(3-methoxypropanoyl)-3-methylpiperazin-1-yl)-4-methylnicotinonitrile]
18 | > 6.30 | COCCC(=O)N1CCN(c2nc(C3CC3)c(Nc3ccnc(C(=O)OC)c3)cc2C#N)C[C@H]1C [Compound 683, (R)-methyl 4-((5-cyano-2-cyclopropyl-6-(4-(3-methoxypropanoyl)-3-methylpiperazin-1-yl)pyridin-3-yl)amino)picolinate]
19 | 6.00 to 6.30 | COCCC(=O)N1CCN(c2nc(C3CC3)c(-c3ccc(N4CCOCC4)cc3)cc2C#N)C[C@H]1C [Compound 354, (R)-6-cyclopropyl-2-[4-(3-methoxy-propionyl)-3-methyl-piperazin-1-yl]-5-(4-morpholin-4-yl-phenyl)-nicotinonitrile]
20 | > 6.30 | COCCC(=O)N1CCN(c2nc(C3CC3)c(Nc3ccnc(OC)c3)cc2C#N)C[C@H]1C [Compound 682, (R)-6-cyclopropyl-2-(4-(3-methoxypropanoyl)-3-methylpiperazin-1-yl)-5-((2-methoxypyridin-4-yl)amino)nicotinonitrile]
21 | 6.00 to 6.30 | N#Cc1cc(-c2cccc3c2NC(=O)C3=O)c(C2CC2)nc1N1CCN(C(=O)C2CC2)[C@H](C2CC2)C1 [Compound 513, (R)-2-(4-(cyclopropanecarbonyl)-3-cyclopropylpiperazin-1-yl)-6-cyclopropyl-5-(2,3-dioxoindolin-7-yl)nicotinonitrile]
22 | > 6.30 | COCCC(=O)N1CCN(c2nc(C3CC3)c(-c3cncc(C)c3)c(C)c2C#N)C[C@H]1C [Compound 318]
23 | > 6.30 | C[C@@H]1CN(c2nc(C3CC3)c(-c3cccc4cnccc34)cc2C#N)CCN1C(=O)CCO [Compound 402, (R)-6-cyclopropyl-2-(4-(3-hydroxypropanoyl)-3-methylpiperazin-1-yl)-5-(isoquinolin-5-yl)nicotinonitrile]
24 | > 6.30 | C=Cc1cc(-c2cc(C#N)c(N3CCN(C(=O)CO)[C@H](C)C3)nc2C2CC2)ccn1 [Compound 632, (R)-2-cyclopropyl-6-(4-(2-hydroxyacetyl)-3-methylpiperazin-1-yl)-2′-vinyl-3,4′-bipyridine-5-carbonitrile]
25 | > 6.30 | N#Cc1cc(-c2cccc3nccnc23)c(C2CC2)nc1N1CCN(C(=O)CC(F)(F)F)[C@H](C2CC2)C1 [Compound 532, (R)-6-cyclopropyl-2-(3-cyclopropyl-4-(3,3,3-trifluoropropanoyl)piperazin-1-yl)-5-(quinoxalin-5-yl)nicotinonitrile]
26 | > 6.30 | Cc1cc2c(-c3cc(C#N)c(N4CCN(C(=O)CC(F)(F)F)[C@H](C5CC5)C4)nc3C3CC3)cccc2cn1 [Compound 471, (R)-6-cyclopropyl-2-(3-cyclopropyl-4-(3,3,3-trifluoropropanoyl)piperazin-1-yl)-5-(3-methylisoquinolin-5-yl)nicotinonitrile]
27 | 6.00 to 6.30 | Cc1c(C#N)c(N2CCN(C(=O)C3CC3)[C@H](C3CC3)C2)nc(C2CC2)c1-c1cn[nH]c1 [Compound 478, (R)-2-(4-(cyclopropanecarbonyl)-3-cyclopropylpiperazin-1-yl)-6-cyclopropyl-4-methyl-5-(1H-pyrazol-4-yl)nicotinonitrile]
28 | 6.00 to 6.30 | COCCC(=O)N1CCN(c2nc(C3CC3)c(-c3cccc4nonc34)cc2C#N)C[C@H]1C [Compound 437, (R)-5-benzo[1,2,5]oxadiazol-4-yl-6-cyclopropyl-2-[4-(3-methoxy-propionyl)-3-methyl-piperazin-1-yl]-nicotinonitrile]
29 | > 6.30 | C=Cc1ccnc(Nc2cc(C#N)c(N3CCN(C(=O)CCCCC)[C@H](C4CC4)C3)nc2C2CC2)c1 [Compound 830, (R)-6-cyclopropyl-2-(3-cyclopropyl-4-hexanoylpiperazin-1-yl)-5-(4-vinylpyridin-2-ylamino)nicotinonitrile]
30 | 6.00 to 6.30 | COCCC(=O)N1CCN(c2nc(C3CC3)c(-c3ccc(C#N)nc3)cc2C#N)C[C@H]1C [Compound 584, (R)-2-cyclopropyl-6-(4-(3-methoxypropanoyl)-3-methylpiperazin-1-yl)-3,3′-bipyridine-5,6′-dicarbonitrile]
31 | > 6.30 | COCCC(=O)N1CCN(c2nc(C3CC3)c(-c3ccc(S(C)(=O)=O)cc3)c(C)c2C#N)C[C@H]1C [Compound 319, (R)-6-cyclopropyl-5-(4-methanesulfonyl-phenyl)-2-[4-(3-methoxy-propionyl)-3-methyl-piperazin-1-yl]-4-methyl-nicotinonitrile]
32 | 6.00 to 6.30 | COCCC(=O)N1CCN(c2nc(C3CC3)c(-c3c(OC)cccc3OC)cc2C#N)C[C@H]1C [Compound 316, (R)-6-cyclopropyl-5-(2,6-dimethoxyphenyl)-2-(4-(3-methoxypropanoyl)-3-methylpiperazin-1-yl)nicotinonitrile]
33 | > 6.30 | COCCC(=O)N1CCN(c2nc(C3CC3)c(-c3ccc(F)c4ccccc34)cc2C#N)C[C@H]1C [Compound 290, (R)-6-cyclopropyl-5-(4-fluoronaphthalen-1-yl)-2-(4-(3-methoxypropanoyl)-3-methylpiperazin-1-yl)nicotinonitrile]
34 | > 6.30 | C=Cc1ccnc(Nc2cc(C#N)c(N3CCN(C(=O)/C=C/CCO)[C@H](C(C)C)C3)nc2C2CC2)c1 [Compound 791, (R,E)-6-cyclopropyl-2-(4-(5-hydroxypent-2-enoyl)-3-isopropylpiperazin-1-yl)-5-((4-vinylpyridin-2-yl)amino)nicotinonitrile]
